In EP4800008A1, “PYRAZOLE DERIVATIVE, OR ACCEPTABLE SALT THEREOF OR N-OXIDE THEREOF, AGRICULTURAL AND HORTICULTURAL CHEMICAL, AND INDUSTRIAL MATERIAL PROTECTANT” (Kureha Corporation, priority 2023, dated 2025):

What was measured:
[1] = tested on: Zymoseptoria tritici; assay: Wheat leaf blight control efficacy test; format: in vivo; settings: 12.5 ppm, as Test Example 4
[2] = tested on: Botrytis cinerea; assay: Cucumber gray mold control efficacy test; format: in vivo; settings: as Test Example 2

Structure (SMILES) | control efficacy [1] [%] | control efficacy ([2]; 12.5 ppm) [%] | control efficacy ([2]; 100 ppm) [%]
CON(C(=O)c1cn(C)nc1C(F)F)C(C)Cc1ccc(C#CCOCc2ccccc2)cc1Cl (stereo not drawn) [Compound I-18] | 100 |  | 
CON(C(=O)c1cn(C)nc1C(F)F)C(C)Cc1c(Cl)cc(Cl)cc1Cl (stereo not drawn) [Control compound C] |  | 65 | 97
